Source: US20240108598A1, “Danegaptide for Use in the Treatment or Prevention of a Kidney Disease” (CIANA THERAPEUTICS APS, priority 2021, published 2024)

How the values were obtained:
Cx43 hemichannels [1] = target: T1, Cx43 hemichannels (Homo sapiens, UniProt P17302); test: Carboxyfluorescein dye uptake assay in primary hPTECs; type: cell-based; conditions: TGFβ1 10 ng/mL + danegaptide 100 nM, 48 h
T1 construct: host or cells: HK2 human kidney proximal tubule epithelial cell line
Description: (§1) In panel A, HK2 cells were cultured in low glucose (5 mM) with/without TGFβ1 (10 ng/ml)±danegaptide (50, 100 and 1000 nM) for 48 h and cell viability assessed. Results are presented as mean±SEM, n=3. […] Addition of danegaptide (50 or 100 nM) reduced dye uptake, returning fluorescence intensity to control levels. Intensity is expressed as percentage compared to low glucose control and is representative of 3 separate experiments. Data is presented as mean±SEM, n=3 with key significances indicated (**P<0.01, ***P<0.001); one-way ANOVA and Tukey's post-test).
HK2 and HPTEC cells were seeded onto fluorodishes (22 mm diameter) and cultured in low glucose DMEM/F12 (5 mmol/1) for 48 h. Following an overnight serum-starvation, cells were incubated with TGFβ1 (10 ng/ml)±danegaptide (100 nM) for 48 h. For subsequent steps, a balanced salt solution (BSS, pH7.0) was used, comprising of NaCl (137 mM), KCl (5.4 mM), MgSO4 (0.8 mM), Na2HPO4 (0.3 mM), KH2PO4 (0.4 mM), NaHCO3 (4.2 mM), HEPES (10 mM) and glucose (5 mM). […] ImageJ was used to quantify dye uptake, where a region of interest (ROI) was drawn around each cell (approx. 10-15 cells/dish) and mean pixel intensity measured. A background fluorescence value was subtracted from each ROI.

HK2 cells = test: Lactate dehydrogenase (LDH) release assay; type: cell-based; conditions: 48 h
Description: HK2 cells were cultured in low glucose (5 mM) for 48 h, prior to being serum-starved overnight and subsequently treated with TGFβ1 (10 ng/mL)±danegaptide (50 nM-1 μM) for 48 h (FIG. 1A, n=3).
The release of lactate dehydrogenase (LDH) into media as a result of plasma membrane damage is commonly used to evaluate cell death or cytotoxicity. HK2 cells were seeded in 96-well plates and cultured in low glucose DMEM/F12 (5 mM) for 48 h, prior to overnight serum-starvation. Cells were then stimulated for 48 h with TGFβ1 (10 ng/ml)±danegaptide (50-1000 nM). The LDH-cytotoxicity assay kit II (Abcam) was used to quantify LDH according to the manufacturer's instructions.

primary hPTECs [2] = test: Inflammation antibody array, supernatant (Table 2); type: cell-based, human; conditions: hPTEC supernatant; TGF-β1 10 ng/mL + DG 100 nM, 48 h
From the text: An inflammation antibody array was used to assess regulation of 31 candidate inflammatory proteins in supernatant from hPTEC cells treated with TGFβ1±danegaptide. Results are representative of 3 separate experiments and presented as mean±SEM, n=3 with key significances indicated (*P<0.05, **P<0.01, ***P<0.001; one-way ANOVA and Tukey's post-test).
A proteome profiler array (Human Cytokine Array Kit from R&D Systems, Oxfordshire, UK) was used, to determine if danegaptide negates TGFβ1-induced changes in expression and secretion of key pro-inflammatory mediators. Primary hPTECs were cultured as described above and treated with TGFβ1 (10 ng/mL)±danegaptide (100 nM) for 48 h.

Cx43 hemichannels [3] = target: T1, Cx43 hemichannels; test: Carboxyfluorescein dye uptake assay in HK2 cells; type: cell-based; conditions: for carboxyfluorescein dye uptake, of control: 48 h
Description: as §1
HK2 and HPTEC cells were seeded onto fluorodishes (22 mm diameter) and cultured in low glucose DMEM/F12 (5 mmol/1) for 48 h. Following an overnight serum-starvation, cells were incubated with TGFβ1 (10 ng/ml)±danegaptide (100 nM) for 48 h. For subsequent steps, a balanced salt solution (BSS, pH7.0) was used, comprising of NaCl (137 mM), KCl (5.4 mM), MgSO4 (0.8 mM), Na2HPO4 (0.3 mM), KH2PO4 (0.4 mM), NaHCO3 (4.2 mM), HEPES (10 mM) and glucose (5 mM). To induce dye uptake, cells were exposed to Ca^2+-free BSS (zero CaCl2+EGTA (1 mM)) plus carboxyfluorescein (200 μM) for 10 min, followed by a 10 min period in Ca^2+-containing BSS (1.3 mM) plus carboxyfluorescein (200 μM). Dishes were subsequently washed with Ca^2+-containing BSS (12 mls). Images were acquired with a Cool Snap HQ CCD camera (Roper Scientific) and Metamorph software (Universal Imaging Corp., Marlow, Bucks, UK). ImageJ was used to quantify dye uptake, where a region of interest (ROI) was drawn around each cell (approx. 10-15 cells/dish) and mean pixel intensity measured. A background fluorescence value was subtracted from each ROI.

primary hPTECs [4] = test: qPCR of cell cycle and reno-protective marker mRNA; type: cell-based, human; conditions: TGFβ1 10 ng/mL + danegaptide 100 nM, 12 h
Description: Primary hPTECs were cultured in low (5 mM) glucose±TGFβ1 (10 ng/mL)±danegaptide (100 nM) for 12 h. […] Danegaptide (100 nM) negated the increase in p16, p21, cyclinD1 (▴▴▴P<0.001; mean±SEM, n=3) and partly reversed the TGFβ1-evoked change in Klotho.
To determine if danegaptide can negate hemichannel-mediated regulation of common cell cycle and reno-protective markers, hPTECs were incubated with TGFβ1 (10 ng/mL)±danegaptide (100 nM) for 12 h and expression of candidate gene mRNA assessed through qPCR analysis.
RNA was extracted using an RNeasy mini kit (QIAGEN) and reverse transcribed (Invitrogen). Real-time PCR (SYBR GreenER, Invitrogen) was performed using a StepOne Plus instrument (Applied Biosystems Inc, Foster City, CA). cDNA expression was obtained by comparing to a standard curve of serially-diluted cDNA. The following primers were used: p16 (forward: […], reverse: […]), p21 (forward: […], reverse: […]), cyclinD1 (forward: […], reverse: […]), Klotho (forward: […], reverse: […]). Melt curve analysis confirmed primer specificity and checked for potential contamination.

[5] = TGFβ1 10 ng/mL + danegaptide 50 nM
[6] = TGFβ1 10 ng/mL + danegaptide 100 nM

T1 sequence (P17302 whole entry): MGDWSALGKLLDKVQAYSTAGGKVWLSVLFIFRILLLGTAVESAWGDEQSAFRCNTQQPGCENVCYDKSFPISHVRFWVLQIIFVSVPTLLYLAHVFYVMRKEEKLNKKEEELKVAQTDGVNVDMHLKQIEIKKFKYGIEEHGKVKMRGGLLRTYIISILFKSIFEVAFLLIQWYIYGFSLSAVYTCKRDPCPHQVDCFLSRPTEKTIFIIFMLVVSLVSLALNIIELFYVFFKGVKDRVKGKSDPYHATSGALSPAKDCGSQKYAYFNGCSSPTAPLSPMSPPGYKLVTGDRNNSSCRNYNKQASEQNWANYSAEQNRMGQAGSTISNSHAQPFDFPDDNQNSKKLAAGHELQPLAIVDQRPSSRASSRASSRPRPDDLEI

Compound: NCC(=O)N1C[C@H](NC(=O)c2ccccc2)C[C@H]1C(=O)O [danegaptide, (2S,4R)-1-(2-aminoacetyl)-4-benzamidopyrrolidine2-carboxylic acid]
- carboxyfluorescein dye uptake, of control (Cx43 hemichannels [1]): 145±19.7%
- LDH release compared to control (HK2 cells; [5]): 106.4±11.6%
- LDH release compared to control (HK2 cells; [6]): 113.9±15.6%
- LDH release compared to control (HK2 cells; TGFβ1 10 ng/mL + danegaptide 1 μM): 113.2±4.3%
- LDH release compared to control (HK2 cells; danegaptide alone 50 nM): 104.4±4.3%
- LDH release compared to control (HK2 cells; danegaptide alone 100 nM): 95.3±4.7%
- LDH release compared to control (HK2 cells; danegaptide alone 1 μM): 92.6±3.3%
- Angiogenin in supernatant (% compared to control) (primary hPTECs [2]): 129 ± 14.7%
- Cystatin C in supernatant (% compared to control) (primary hPTECs [2]): 88 ± 6.8%
- DPPIV in supernatant (% compared to control) (primary hPTECs [2]): 179 ± 37.8%
- ENA 78 in supernatant (% compared to control) (primary hPTECs [2]): 119 ± 3.9%
- Endoglin in supernatant (% compared to control) (primary hPTECs [2]): 94 ± 5.8%
- FGF7 in supernatant (% compared to control) (primary hPTECs [2]): 102 ± 16.5%
- Flt 3 Ligand in supernatant (% compared to control) (primary hPTECs [2]): 103 ± 12.8%
- G-CSF in supernatant (% compared to control) (primary hPTECs [2]): 117 ± 12.0%
- GM-CSF in supernatant (% compared to control) (primary hPTECs [2]): 114 ± 3.8%
- HGF in supernatant (% compared to control) (primary hPTECs [2]): 88 ± 13.7%
- ICAM-1 in supernatant (% compared to control) (primary hPTECs [2]): 124 ± 16.6%
- IFNg in supernatant (% compared to control) (primary hPTECs [2]): 90 ± 12.7%
- IGFBP-2 in supernatant (% compared to control) (primary hPTECs [2]): 90 ± 6.4%
- IGFBP-3 in supernatant (% compared to control) (primary hPTECs [2]): 84.7 ± 14.3%
- IL1A in supernatant (% compared to control) (primary hPTECs [2]): 89 ± 21.5%
- IL3 in supernatant (% compared to control) (primary hPTECs [2]): 107 ± 38.0%
- IL8 in supernatant (% compared to control) (primary hPTECs [2]): 99 ± 26.4%
- IL12 p70 in supernatant (% compared to control) (primary hPTECs [2]): 63 ± 15.9%
- IL13 in supernatant (% compared to control) (primary hPTECs [2]): 62 ± 27.2%
- Kallikrein 3 in supernatant (% compared to control) (primary hPTECs [2]): 74 ± 20.6%
- LIF in supernatant (% compared to control) (primary hPTECs [2]): 134 ± 5.4%
- MCP-1 in supernatant (% compared to control) (primary hPTECs [2]): 101 ± 6.2%
- MMP-9 in supernatant (% compared to control) (primary hPTECs [2]): 80 ± 8.9%
- PDGF-AA/BB in supernatant (% compared to control) (primary hPTECs [2]): 99 ± 6.3%
- RAGE in supernatant (% compared to control) (primary hPTECs [2]): 99 ± 12.5%
- RANTES in supernatant (% compared to control) (primary hPTECs [2]): 101 ± 12.1%
- Serpin E1 in supernatant (% compared to control) (primary hPTECs [2]): 81 ± 42.8%
- TFF3 in supernatant (% compared to control) (primary hPTECs [2]): 98 ± 17.5%
- TNF-α in supernatant (% compared to control) (primary hPTECs [2]): 139 ± 6.1%
- Thrombospondin-1 in supernatant (% compared to control) (primary hPTECs [2]): 115 ± 11.9%
- VEGF in supernatant (% compared to control) (primary hPTECs [2]): 217 ± 49.3%
- carboxyfluorescein dye uptake, of control (Cx43 hemichannels [3]; [5]): 165.5±17.9%
- carboxyfluorescein dye uptake, of control (Cx43 hemichannels [3]; [6]): 147.6±18.1%
- carboxyfluorescein dye uptake (Cx43 hemichannels [3]; danegaptide alone): did not alter dye uptake
- concentration of optimal inhibition of carboxyfluorescein dye uptake (Cx43 hemichannels [3]; dose range 10 to 1000 nM tested): 50 to 100 nM
- Klotho mRNA expression, of control (primary hPTECs [4]): 59.9±11.7%
- cyclinD1 mRNA expression, of control (primary hPTECs [4]): 132.9±15.0%
- p16 mRNA expression, of control (primary hPTECs [4]): 193±18.5%
- p21 mRNA expression, of control (primary hPTECs [4]): 142.2±6.2%
